Consider 1 molecule from paper PMC4981864, “Novel pH-Sensitive Cyclic Peptides” (Scientific Reports, 2016).

Series [1] has as its system 4T1 mammary tumors. Description: Ex vivo fluorescence imaging of tumor and organs after IV Alexa546-peptides. Type of series: in vivo. Conditions: 24 hours after IV, three mice. As to the method:
The murine 4T1 xenograft model, which closely mimics stage IV of human breast cancer, was used in our study. Small 4T1 tumor (tumor volume <150 mm^3) generates a significant level of lactate and serves as a good model of an aggressive, acidic tumor[35]. All peptides were covalently conjugated with Alexa546-malemide. […] The mean fluorescence of tumor, muscle, kidney, liver and lungs were recorded and analyzed (Fig. 6).
All animal studies were conducted according to the animal protocol AN04-12-011 approved by the Institutional Animal Care and Use Committee at the University of Rhode Island, in compliance with the principles and procedures outlined by NIH for the Care and Use of Animals. 4T1 breast tumors were established by subcutaneous injection of 4T1 cells (8 × 10^5 cells/0.1 mL/flank) in the right flank of adult female BALB/c mice (about 19–22 g weight) obtained from Harlan Laboratories. When tumors reached about 6 mm in diameter single tail vein injections of 100 μl of 40 μM Alexa546-peptides were performed. […] Mean fluorescence intensity of tumor and organs was calculated using Kodak software.

Series [2] is classed as physicochemical. Conditions: pH 8. As to the method: Large unilamellar vesicles (LUVs) were prepared by extrusion. POPC, 1-palmitoyl-2-oleoyl-sn-glycero-3-phosphocholine (Avanti Polar Lipids), or a mixture of POPC with 0.5% of 18:1 NBD-PE, 1,2-dioleoyl-sn-glycero-3-phosphoethanolamine-N-7-nitro-2-1,3-benzoxadiazol-4-yl ammonium salt (Avanti Polar Lipids) were dissolved in chloroform, desolvated on a rotary evaporator, and dried under high vacuum for several hours. The phospholipid film was then rehydrated in 10 mM phosphate buffer pH 8.0, vortexed until the lipid bilayer was completely dissolved, and repeatedly (15–21 times) extruded through the membranes with 50 nm pore sizes to obtain LUVs.
pH-dependent partitioning of the peptides into a lipid bilayer of the membrane was investigated by the shift of the position of the fluorescence spectral maximum for the peptides in the presence POPC liposomes induced by a drop of pH from 8 to 2.5 by the addition of HCl. The peptides were incubated overnight with 50-nm POPC liposomes (final concentration of the peptides and POPC in solution was 5 μM and 1 mM, respectively), and pH decrease was achieved by the addition of aliquots of 4, 2, 1 and 0.1 M HCl. pH was measured by micro-electrode probe (Thermo Electron Corporation, Orion Ross Micro pH electrode). Fluorescence spectra were recorded at each pH value. The spectra were analyzed by the decomposition algorithms using on-line PFAST toolkit[47] (Protein Fluorescence and Structural Toolkit: http://pfast.phys.uri.edu/) to establish the position of the emission maximum. Finally, the positions of the fluorescence spectral maxima (λmax) were plotted versus pH, and the Henderson–Hasselbalch equation was used to fit the data (using Origin 8.5 software): […]
where [drawing 3] and [drawing 4] are the beginning and the end of the transition, respectively, and pKa – is the midpoint of the transition.

With `O=C(O)CC[C@@H]1NC(=O)[C@H](CS)NC(=O)[C@H](Cc2c[nH]c3ccccc23)NC(=O)[C@H](Cc2c[nH]c3ccccc23)NC(=O)[C@H](Cc2c[nH]c3ccccc23)NC(=O)[C@H](Cc2c[nH]c3ccccc23)NC(=O)[C@H](Cc2c[nH]c3ccccc23)NC(=O)[C@H](CCC(=O)O)NC(=O)[C@H](CCC(=O)O)NC(=O)[C@H](CCC(=O)O)NC1=O` [c[E4W5C]], the Tumor/Muscle ratio in series [1] came out at 5.6. For the same molecule, in series [2], the “apparent pK (pKa) of peptide's partitioning into the bilayer” value is recorded as 5.7.
